system: HEK293 cells; test: HEK293 VLCFA-LPC IC50 determination (13C-labeled C26:0 LPC by UHPLC/MS); format: cell-based, human; details: Homo sapiens, HEK293, HEK293 cells; average of one or more replicates; read-out: Average HEK293 IC50
How it was run: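 Suspension HEK293 cells (final 0.5 million/mL after mixing with equal volume) incubated 48 hours with compound plus 13C-acetate (1.0 mg/mL in added media), shaking at 37° C. Lipids extracted with hexane/isopropanol or methanol, C13:0 LPC standard. UHPLC/MS of 13C-labeled C26:0 LPC (638.500/104.100 m/z); IC50 by four-parameter fit.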

Compared with `O=C(Nc1ccn(-c2cccnn2)n1)C1(c2ncccc2F)CC1` [Compound 458, 1-(3-fluoro-2-pyridyl)-N-(1-pyridazin-3-ylpyrazol-3-yl)cyclopropanecarboxamide], `O=C(Nc1ccn(-c2ncccc2F)n1)C1(c2ncccc2F)CC1` [Compound 460, 1-(3-fluoro-2-pyridyl)-N-[1-(3-fluoro-2-pyridyl)pyrazol-3-yl]cyclopropanecarboxamide] is higher in IC50: 940 nM for the first, > 2000 nM for the second.

Compared with `O=C(Nc1ccn(-c2cncnc2)n1)C1(c2ncccc2F)CC1` [Compound 459, 1-(3-fluoro-2-pyridyl)-N-(1-pyrimidin-5-ylpyrazol-3-yl)cyclopropanecarboxamide], `O=C(Nc1ccn(-c2cc(F)cc(F)c2)n1)C1(c2ncccc2F)CC1` [Compound 461, N-[1-(3,5-difluorophenyl)pyrazol-3-yl]-1-(3-fluoro-2-pyridyl)cyclopropanecarboxamide] is 12-fold lower in IC50: 920 nM for the first, 76 nM for the second. The second is the more potent here.

`O=C(Nc1cc(F)n(-c2cncc(F)c2)n1)C1(c2ncccc2F)CC1` [Compound 462, N-[5-fluoro-1-(5-fluoro-3-pyridyl)pyrazol-3-yl]-1-(3-fluoro-2-pyridyl)cyclopropanecarboxamide] and `O=C(Nc1cc(F)n(-c2cncc(F)c2)n1)C1(c2ccccc2F)CC1` [Compound 463, N-[5-fluoro-1-(5-fluoro-3-pyridyl)pyrazol-3-yl]-1-(2-fluorophenyl)cyclopropanecarboxamide] cannot be ordered by IC50: > 5000 nM for the first, > 5000 nM for the second.

Compared with `O=C(Nc1ccn(-c2cncc(F)c2)n1)C1(c2ccccn2)CC1` [Compound 464, N-[1-(5-fluoro-3-pyridyl)pyrazol-3-yl]-1-(2-pyridyl)cyclopropanecarboxamide], `O=C(Nc1ccn(-c2cncc(F)c2)n1)C1(c2ccc(F)cn2)CC1` [Compound 466, 1-(5-fluoro-2-pyridyl)-N-[1-(5-fluoro-3-pyridyl)pyrazol-3-yl]cyclopropanecarboxamide] is 4.3-fold higher in IC50: 130 nM for the first, 560 nM for the second.

First: O=C(Nc1ccn(-c2cncc(F)c2)n1)C1(c2cccc(OC(F)(F)F)c2)CC1 [Compound 465]
Second: O=C(Nc1ccn(-c2cncc(F)c2)n1)C1(c2cccs2)CC1 [Compound 483, N-[1-(5-fluoro-3-pyridyl)pyrazol-3-yl]-1-(2-thienyl)cyclopropanecarboxamide]
The IC50 of the first is higher: 24 nM for the first, < 20 nM for the second.

`COc1cc(-n2ccc(NC(=O)C3(c4ccccc4F)CC3)n2)c(F)cn1` [Compound 467, N-[1-(5-fluoro-2-methoxy-4-pyridyl)pyrazol-3-yl]-1-(2-fluorophenyl)cyclopropanecarboxamide] and `COc1ccc(-n2ccc(NC(=O)C3(c4ccccc4F)CC3)n2)c(F)c1` [Compound 470] cannot be ordered by IC50: 2700 nM for the first, > 2000 nM for the second.

`COc1cc(-n2ccc(NC(=O)C3(c4ccccc4F)CC3)n2)ccc1F` [Compound 468, N-[1-(4-fluoro-3-methoxy-phenyl)pyrazol-3-yl]-1-(2-fluorophenyl)cyclopropanecarboxamide] and `COc1ccncc1-n1ccc(NC(=O)C2(c3ccccc3F)CC2)n1` [Compound 469, 1-(2-fluorophenyl)-N-[1-(4-methoxy-3-pyridyl)pyrazol-3-yl]cyclopropanecarboxamide] cannot be ordered by IC50: > 5000 nM for the first, > 2000 nM for the second.

Compared with `Cc1ncccc1-n1ccc(NC(=O)C2(c3ccccc3F)CC2)n1` [Compound 471, 1-(2-fluorophenyl)-N-[1-(2-methyl-3-pyridyl)pyrazol-3-yl]cyclopropanecarboxamide], `Cc1ccncc1-n1ccc(NC(=O)C2(c3ccccc3F)CC2)n1` [Compound 472, 1-(2-fluorophenyl)-N-[1-(4-methyl-3-pyridyl)pyrazol-3-yl]cyclopropanecarboxamide] is lower in IC50: > 5000 nM for the first, 56 nM for the second. The second is the more potent here.

First: O=C(Nc1ccn(-c2ccccc2)n1)C1(c2cccs2)CC1 [Compound 474, N-(1-phenylpyrazol-3-yl)-1-(2-thienyl)cyclopropanecarboxamide]
Second: O=C(Nc1ccn(-c2ccncc2)n1)C1(c2cccs2)CC1 [Compound 482, N-[1-(4-pyridyl)pyrazol-3-yl]-1-(2-thienyl)cyclopropanecarboxamide]
The IC50 of the first is 2.1-fold lower: 19 nM for the first, 39 nM for the second. The first is the more potent here.

Going from `O=C(Nc1ccn(-c2ccccc2)n1)C1(c2ccc(F)cn2)CC1` [Compound 475, 1-(5-fluoro-2-pyridyl)-N-(1-phenylpyrazol-3-yl)cyclopropanecarboxamide] to `O=C(Nc1ccn(-c2ccncc2)n1)C1(c2ccc(F)cn2)CC1` [Compound 489, 1-(5-fluoro-2-pyridyl)-N-[1-(4-pyridyl)pyrazol-3-yl]cyclopropanecarboxamide], the IC50 rises from 270 nM to 1500 nM (5.6-fold).

Going from `CC(C)(C(=O)Nc1ccn(-c2ccccc2)n1)c1ccccn1` [Compound 476, 2-methyl-N-(1-phenylpyrazol-3-yl)-2-(2-pyridyl)propanamide] to `O=C(Nc1ccn(-c2ccccc2)n1)C1(c2cnccn2)CC1` [Compound 477, N-(1-phenylpyrazol-3-yl)-1-pyrazin-2-yl-cyclopropanecarboxamide], the IC50 rises from 530 nM to 1500 nM (2.8-fold).

Compared with `COc1cc(-n2ccc(NC(=O)C3(c4cccs4)CC3)n2)ccn1` [Compound 478, N-[1-(2-methoxy-4-pyridyl)pyrazol-3-yl]-1-(2-thienyl)cyclopropanecarboxamide], `COc1cc(-n2ccc(NC(=O)C3(c4ccc(F)cn4)CC3)n2)ccn1` [Compound 485, 1-(5-fluoro-2-pyridyl)-N-[1-(2-methoxy-4-pyridyl)pyrazol-3-yl]cyclopropanecarboxamide] is 12-fold higher in IC50: 120 nM for the first, 1500 nM for the second. The first is the more potent here.

`O=C(Nc1ccn(-c2ccc(F)c(F)c2)n1)C1(c2cccs2)CC1` [Compound 479, N-[1-(3,4-difluorophenyl)pyrazol-3-yl]-1-(2-thienyl)cyclopropanecarboxamide] and `O=C(Nc1ccn(-c2cc(F)cc(F)c2)n1)C1(c2cccs2)CC1` [Compound 480, N-[1-(3,5-difluorophenyl)pyrazol-3-yl]-1-(2-thienyl)cyclopropanecarboxamide] are within 1.5-fold of each other in IC50: 190 nM for the first, 230 nM for the second.

Compared with `O=C(Nc1ccn(-c2ccc(F)cc2)n1)C1(c2cccs2)CC1` [Compound 481, N-[1-(4-fluorophenyl)pyrazol-3-yl]-1-(2-thienyl)cyclopropanecarboxamide], `O=C(Nc1ccn(-c2ccc(F)cc2)n1)C1(c2ccc(F)cn2)CC1` [Compound 488, N-[1-(4-fluorophenyl)pyrazol-3-yl]-1-(5-fluoro-2-pyridyl)cyclopropanecarboxamide] is 3.2-fold higher in IC50: 160 nM for the first, 510 nM for the second.

`O=C(Nc1ccn(-c2cncc(OC(F)F)c2)n1)C1(c2cccs2)CC1` [Compound 484, N-[1-[5-(difluoromethoxy)-3-pyridyl]pyrazol-3-yl]-1-(2-thienyl)cyclopropanecarboxamide] and `O=C(Nc1ccn(-c2cncc(OC(F)F)c2)n1)C1(c2ccc(F)cn2)CC1` [Compound 490, N-[1-[5-(difluoromethoxy)-3-pyridyl]pyrazol-3-yl]-1-(5-fluoro-2-pyridyl)cyclopropanecarboxamide] cannot be ordered by IC50: > 5000 nM for the first, > 5000 nM for the second.

Going from `O=C(Nc1ccn(-c2cc(F)cc(F)c2)n1)C1(c2ccc(F)cn2)CC1` [Compound 487, N-[1-(3,5-difluorophenyl)pyrazol-3-yl]-1-(5-fluoro-2-pyridyl)cyclopropanecarboxamide] to `COc1cc(-n2ccc(NC(=O)C3(c4cnccn4)CC3)n2)ccn1` [Compound 491, N-[1-(2-methoxy-4-pyridyl)pyrazol-3-yl]-1-pyrazin-2-yl-cyclopropanecarboxamide], the IC50 rises from 1200 nM to > 5000 nM. The first is the more potent here.

From patent US20180251431A1 (VERTEX PHARMACEUTICALS INCORPORATED, priority 2016, published 2018)
